# Measurements: patent publication US7071197B2, “N,N-disubstituted diazocycloalkanes” (Recordati S.A., priority 2002, dated 2006)
# Assays:
# [1] = target: T1, human 5HT1A-serotonergic receptor (Homo sapiens, UniProt P08908); assay: [3H]8-OH-DPAT radioligand binding to human recombinant 5-HT1A receptors; conditions: for Ki: [3H]8-OH-DPAT, HeLa cell membranes, read-out: Affinity: Ki; for potency at the 5-HT1A receptor compared with Ex. 5: statistical signficance p<0.01
# T1 construct: expressed in transfected cells
# T1 sequence (P08908 1-422): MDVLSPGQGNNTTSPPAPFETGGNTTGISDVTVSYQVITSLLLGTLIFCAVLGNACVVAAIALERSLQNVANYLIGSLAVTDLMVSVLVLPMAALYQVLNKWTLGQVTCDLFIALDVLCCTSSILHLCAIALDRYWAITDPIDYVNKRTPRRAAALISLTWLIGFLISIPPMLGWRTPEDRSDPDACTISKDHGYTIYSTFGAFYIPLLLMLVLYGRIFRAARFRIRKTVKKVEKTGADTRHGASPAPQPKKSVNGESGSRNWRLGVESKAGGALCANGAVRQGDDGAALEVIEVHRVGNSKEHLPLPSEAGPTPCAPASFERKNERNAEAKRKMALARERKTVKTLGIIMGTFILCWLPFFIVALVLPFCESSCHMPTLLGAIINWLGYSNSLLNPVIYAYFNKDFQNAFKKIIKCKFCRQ
# Method: A genomic clone coding for the human 5HT1A-serotonergic receptor was stably transfected in a human cell line (HeLa). HeLa cells were grown as monolayers in Dulbecco's modified Eagle medium (DMEM), containing 10% fetal bovine serum, gentamycin (0.1 mg/ml) and 5% carbon dioxide, at 37° C. The cells were detached from the growth flask at 95% confluence by a cell scraper and were lysed in cold 5 mM Tris and 5 mM EDTA buffer (pH 7.4). The homogenates were centrifuged at 40000×g×20 minutes and the pellets were resuspended in a small volume of cold 5 mM Tris and 5 mM EDTA buffer (pH 7.4) and immediately frozen and stored at −70° C. until use.
# [^3H]8-OH-DPAT binding: on the day of experiment, the cell membranes were resuspended in incubation buffer: 50 mM Tris HCl (pH 7.4), 2.5 mM MgCl2, […] (Fargin et al., Nature 335, 358–360, 1988). The membranes were incubated in a final volume of 1 ml for 30 minutes at 30° C. with 1 nM [^3H]8-OH-DPAT, in the absence or presence of the test compounds. Non-specific binding was determined in the presence of 10 μM 5-HT. Incubation was stopped by addition of cold Tris-HCl buffer and rapid filtration through a 0.2%-polyethyleneimine-pretreated Whatman-GF/B or Schleicher-&-Schuell-GF52 filter.
# The affinity of the tested compounds was evaluated as inhibition of specific binding of the radioligand to 5-HT1A receptors (IC50) by using the non-linear curve-fitting program (De Lean et al., Am. J. Physiol. 235, E97-E102, 1978). The IC50 value was converted to an affinity constant (Ki) by the equation of Cheng et al., Biochem. Pharmacol. 22, 3099–3108 (1973).
# [2] = system: rhythmic bladder-voiding contractions in anaesthetised rats; assay: Rhythmic bladder-voiding contractions induced by bladder filling in anaesthetised rats; assay type: in vivo, rat; conditions: for ED50: Rattus norvegicus, read-out: ED50 (frequency) (extrapolated dose inducing a reduction of the number of contractions > 30% in 50% of treated rats); for ED50 / ED10 min (extrapolated dose inducing 10 minutes of disappearance of the contractions): intravenous administration, anaesthetised rats; for time of disappearance of bladder contractions: after administration of 0.3 mg/kg
# Method: Female Sprague-Dawley rats weighing 225–275 g (Crl: CD® (SD) IGS BR, Charles River Italia) were used. The animals were housed with free access to food and water and maintained on a forced 12-hour alternating light-dark cycle at 22–24° C. for at least one week, except during the experiment. The activity on rhythmic bladder voiding contractions was evaluated according to the method of Dray (Dray J., Pharmacol. Methods, 13:157, 1985), with some modifications as in Guarneri (Guarneri, Pharmacol. Res. 27:173, 1993). Briefly, the rats were anaesthetised by subcutaneous injection of 1.25 g/kg (5 ml/kg) urethane, after which the urinary bladder was catheterised via the urethra using PE 50 polyethylene tubing filled with physiological saline. The catheter was tied in place with a ligature around the external urethral orifice and was connected to conventional pressure transducers (Statham P23 ID/P23 XL). […] The bladder was then filled via the recording catheter by incremental volumes of warm (37° C.) saline until reflex bladder-voiding contractions occurred (usually 0.81.5 ml). For intravenous injection of bioactive compounds, PE 50 polyethylene tubing filled with physiological saline was inserted into the jugular vein.
# From the cystometrogram, the number of contractions recorded 15 minutes before (basal values) and after treatment, as well as the mean amplitude of these contractions (mean height of the peaks in mmHg), was evaluated.
# Since most compounds produced an effect that was relatively rapid in onset and led to a complete cessation of bladder contractions, bioactivity was conveniently estimated by measuring the duration of bladder quiescence (i.e., the length of the time during which no contractions occurred). The number of tested animals showing a reduction in the number of contractions higher than 30% of that observed in the basal period was recorded too.
# The extrapolated doses which induced a reduction in the number of contractions greater than 30% in 50% of the treated rats (ED50) were evaluated by the method of Bliss (Bliss C. I., Quart J. Pharm. Pharmacol. 11, 192–216, 1938).
SMILES,Ki [1] [nM],potency at the 5-HT1A receptor compared with Ex. 5 [1],ED50 [2] [mg/kg],ED10 min (extrapolated dose inducing 10 minutes of disappearance of the contractions) [2] [mg/kg],time of disappearance of bladder contractions [2] [min],"extrapolated dose inducing 10 minutes of disappearance of the contractions, fold lower than Ex. 5 ([2]; compared with Ex. 5)"
"COc1ccccc1N1CCN(CC[C@@H](c2ccccc2F)[C@H](O)C2CCCCC2)CC1 (racemic) [Ex. 1, 1-[(SR-RS)-4-cyclohexyl-4-hydroxy-3-(2-fluorophenyl)-butyl]-4-(2-methoxyphenyl)-piperazine]",0.13,more potent than Ex. 5,0.03,0.198,–,–
"COc1ccccc1N1CCN(CC[C@H](c2ccccc2)[C@@H](O)C2CCCCC2)CC1 (racemic) [Ex. 5, 1-[(RS,SR)-4-Cyclohexyl-4-hydroxy-3-phenyl-butyl]-4-(2-methoxyphenyl)-piperazine, reference compound]",0.65,–,0.018,0.066,14,–
"COc1ccccc1N1CCN(CC[C@H](c2ccccc2F)[C@@H](O)C2CCCCC2)CC1 [Ex. 1Y, 1-[(3R,4S)-4-cyclohexyl-4-hydroxy-3-(2-fluorophenyl)-butyl]-4-(2-methoxyphenyl)-piperazine]",0.37,more potent than Ex. 5,0.015,0.023,24,at least 2 fold
"COc1ccccc1N1CCN(CC[C@H](c2ccccc2F)[C@H](O)C2CCCCC2)CC1 [Ex. 2X, 1-[(3R,4R)-4-cyclohexyl-4-hydroxy-3-(2-fluorophenyl)-butyl]-4-(2-methoxyphenyl)-piperazine]",0.24,more potent than Ex. 5,–,–,–,–
